Experimental data reported in patent publication US20260085067A1, “CYCLIC SULFONAMIDE RIBONUCLEOTIDE REDUCTASE (RNR) INHIBITORS AND USES THEREOF” (Boundless Bio, Inc., priority 2022, published 2026).

Experiments:
[1] = system: pCHK1 (S345) in Colo320 DM cells; assay: Alphalisa assay, detection of pCHK1 (S345) in Colo320 DM cells; type: cell-based, human; conditions: Homo sapiens, COLO 320DM, compound overnight (approximately 16 hours)
Protocol: Colo320 DM cells (ATCC #CCL-220, derived from human colorectal adenocarcinoma, Dukes' type C) were seeded on a […], cell culture treated assay plate at a density of 50,000 cells/well in 200 μL of RPMI-1640 media supplemented with 10% Fetal Bovine Serum and incubated at 37° C. overnight. The following day, test compound dilutions were added directly to the plated cells by a Tecan digital dispenser to a final DMSO concentration of <0.5%. and incubated at 37° C. overnight (approximately 16 hours). The following day all cell culture media was removed from the cells. 75 μL of 1×AlphaLisa lysis buffer was added to each well and plates were agitated on a shaker for 30 minutes at room temperature. The lysis of cells and detection of pCHK1 (S345) were performed with reagents contained within the AlphaLisa Sure Fire assay kit (Perkin Elmer #ALSU-PCHK1-A) according to the manufacturer's instructions. 10 μL of each lysate was then transferred to a white, 384-well assay plate (Perkin Elmer #6008280). 5 μL of Acceptor mix was then added to each well of lysate in the white, 384-well assay plate and incubated in the dark at room temperature for 60 minutes. 5 μL of Donor mix was then added to each well of the white, 384-well assay plate in subdued light and incubated at room temperature for 60 minutes. Plates were read on an Alpha Technology-compatible plate reader using standard AlphaLisa settings.

RNR (RNR1:RNR2 1:1) = molecular target: T1, RNR (RNR1:RNR2 1:1) (Homo sapiens, UniProt P23921); assay: RNR enzyme activity, rapid-fire mass spectrometry (RF/MS) assay; type: biochemical; conditions: [RNR] 50 nM, 1:1 RNR1:RNR2; CDP 5 μM; ATP 1 mM; 37° C., 45 min; compounds screened up to 50 μM
T1 sequence (P23921 1-792): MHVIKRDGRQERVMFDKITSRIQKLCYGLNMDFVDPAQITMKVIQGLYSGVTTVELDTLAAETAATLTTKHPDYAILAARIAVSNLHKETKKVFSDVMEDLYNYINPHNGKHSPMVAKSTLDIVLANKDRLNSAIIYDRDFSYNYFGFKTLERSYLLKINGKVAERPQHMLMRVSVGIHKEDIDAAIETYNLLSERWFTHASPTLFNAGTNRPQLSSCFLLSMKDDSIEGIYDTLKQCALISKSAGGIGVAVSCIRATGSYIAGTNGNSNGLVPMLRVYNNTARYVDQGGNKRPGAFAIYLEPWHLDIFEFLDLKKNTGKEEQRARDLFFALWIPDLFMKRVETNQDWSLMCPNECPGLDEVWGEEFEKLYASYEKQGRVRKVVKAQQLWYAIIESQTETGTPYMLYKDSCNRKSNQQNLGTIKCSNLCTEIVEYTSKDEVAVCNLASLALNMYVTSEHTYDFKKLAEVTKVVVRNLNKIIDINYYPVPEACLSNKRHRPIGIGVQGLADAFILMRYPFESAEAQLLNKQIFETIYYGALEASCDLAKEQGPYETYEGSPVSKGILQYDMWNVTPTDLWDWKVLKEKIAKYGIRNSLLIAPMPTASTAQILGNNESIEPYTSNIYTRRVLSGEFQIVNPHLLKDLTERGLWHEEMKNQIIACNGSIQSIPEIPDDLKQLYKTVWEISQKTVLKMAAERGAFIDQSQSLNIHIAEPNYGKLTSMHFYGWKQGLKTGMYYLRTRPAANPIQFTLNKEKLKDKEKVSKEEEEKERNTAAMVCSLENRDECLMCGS
Protocol: A rapid-fire mass spectrometry (RF/MS) assay was used to assess RNR enzyme activity using a 384 well plate and a robotic platform.
The plate layout included two validated reference compounds (Triapine (3-AP) and Hydroxyurea (HU)): • A dose response in duplicate; top concentration: 5 μM (3-AP) and 250 μM (HU), semi-log dilutions. • Spike wells in triplicate randomly spotted at four concentrations: • 250 μM, 100 μM, 30 μM and 2 μM for HU • 5 μM, 2 μM, 0.6 μM and 0.04 μM for 3-AP
First, the multidrop pipes were saturated for 30 minutes with enzymatic solution. Then 30 μL of Stop solution was distributed in column 24. Next, 15 μL of enzyme was distributed in column 1 to 24. Next, a pre-incubation step of 15 minutes at room temperature occurred, followed by distribution of 15 μL of substrate solution (column 1 to 24). Next, the plate was incubated for 45 minutes at 37° C. 30 μL of Stop solution was then distributed to columns 1 to 23.
The final parameters for the enzyme reactions were: • Incubation: 37° C., 45 min • [CDP]: 5 μM; [ATP]: 1 mM; [NADPH]: No • [RNR]final: 50 nM with 1:1 (RNR1:RNR2) ratio • Final volume: 30 μL • Stop solution: 6% HCOOH in water

Row | SMILES | IC50 [1] [nM] | IC50 (RNR (RNR1:RNR2 1:1)) [nM]
1 | Cc1ccc(F)c([C@@H](C)[C@@H](c2n[nH]c(=O)o2)N2CCOc3c(ccc(Cl)c3[C@H](C)N(C)C)S2(=O)=O)c1C (single isomer, unassigned) [Example 53] | 1000 to 5000 | < 20
2 | Cc1ccc(F)c([C@@H](C)[C@@H](c2n[nH]c(=O)o2)N2CCOc3c(ccc(Cl)c3[C@@H](C)N(C)C)S2(=O)=O)c1C (single isomer, unassigned) [Example 54] | 1000 to 5000 | < 20
3 | Cc1ccc(F)c([C@@H](C)[C@@H](c2n[nH]c(=O)o2)N2CN(C3CCCOC3)c3cc(Cl)ccc3S2(=O)=O)c1C (stereo in doubt) [Example 44, 5-((1S,2R)-1-(6-chloro-1,1-dioxido-4-((R)-tetrahydro-2H-pyran-3-yl)-3,4-dihydro-2H-benzo[e][1,2,4]thiadiazin-2-yl)-2-(6-fluoro-2,3-dimethylphenyl)propyl)-1,3,4-oxadiazol-2 (3H)-one] | ≤ 1000 | < 20
4 | Cc1ccc(F)c([C@@H](C)[C@@H](c2n[nH]c(=O)o2)N2CN(C(C)C)c3cc(Cl)ccc3S2(=O)=O)c1C [Example 4, 5-((1S,2R)-1-(6-chloro-4-isopropyl-1,1-dioxido-3,4-dihydro-2H-benzo[e][1,2,4]thiadiazin-2-yl)-2-(6-fluoro-2,3-dimethylphenyl)propyl)-1,3,4-oxadiazol-2 (3H)-one] | 1000 to 5000 | 100 to 1000
5 | Cc1ccc(F)c([C@@H](C)[C@@H](c2n[nH]c(=O)o2)N2CN(C)c3cc(Cl)cnc3S2(=O)=O)c1C [Example 5, 5-((1S,2R)-1-(6-chloro-4-methyl-1,1-dioxido-3,4-dihydro-2H-pyrido[3,2-e][1,2,4]thiadiazin-2-yl)-2-(6-fluoro-2,3-dimethylphenyl)propyl)-1,3,4-oxadiazol-2 (3H)-one] | 1000 to 5000 | 20 to 100
6 | Cc1ccc(F)c([C@@H](C)[C@@H](c2n[nH]c(=O)o2)N2CN(C3CC3)c3cc(Cl)ccc3S2(=O)=O)c1C [Example 6, 5-((1S,2R)-1-(6-chloro-4-cyclopropyl-1,1-dioxido-3,4-dihydro-2H-benzo[e][1,2,4]thiadiazin-2-yl)-2-(6-fluoro-2,3-dimethylphenyl)propyl)-1,3,4-oxadiazol-2 (3H)-one] | ≤ 1000 | 20 to 100
7 | [2H]C([2H])([2H])N1CN([C@H](c2n[nH]c(=O)o2)[C@H](C)c2c(F)ccc(C)c2C)S(=O)(=O)c2ccc(Cl)cc21 [Example 9, 5-((1S,2R)-1-(6-chloro-4-(methyl-d3)-1,1-dioxido-3,4-dihydro-2H-benzo[e][1,2,4]thiadiazin-2-yl)-2-(6-fluoro-2,3-dimethylphenyl)propyl)-1,3,4-oxadiazol-2 (3H)-one] | ≤ 1000 | 20 to 100
8 | CCCN1CN([C@H](c2n[nH]c(=O)o2)[C@H](C)c2c(F)ccc(C)c2C)S(=O)(=O)c2ccc(Cl)cc21 [Example 10, 5-((1S,2R)-1-(6-chloro-1,1-dioxido-4-propyl-3,4-dihydro-2H-benzo[e][1,2,4]thiadiazin-2-yl)-2-(6-fluoro-2,3-dimethylphenyl)propyl)-1,3,4-oxadiazol-2 (3H)-one] | ≤ 1000 | < 20
9 | Cc1ccc(F)c([C@@H](C)[C@@H](c2n[nH]c(=O)o2)N2CCN(C)c3cc(Cl)ccc3S2(=O)=O)c1C [Example 13, 5-((1S,2R)-1-(7-chloro-5-methyl-1,1-dioxido-4,5-dihydrobenzo[f][1,2,5]thiadiazepin-2 (3H)-yl)-2-(6-fluoro-2,3-dimethylphenyl)propyl)-1,3,4-oxadiazol-2 (3H)-one] | 1000 to 5000 | 20 to 100
10 | Cc1cc2c(cc1Cl)OCCN([C@H](c1n[nH]c(=O)o1)[C@H](C)c1c(F)ccc(C)c1C)S2(=O)=O [Example 15, 5-((1S,2R)-1-(7-chloro-8-methyl-1,1-dioxido-3,4-dihydro-2H-benzo[b][1,4,5]oxathiazepin-2-yl)-2-(6-fluoro-2,3-dimethylphenyl)propyl)-1,3,4-oxadiazol-2 (3H)-one] | > 50000 | 100 to 1000
11 | Cc1ccc(F)c([C@@H](C)[C@@H](c2n[nH]c(=O)o2)N2CCOc3cc(Cl)ncc3S2(=O)=O)c1C [Example 17, 5-((1S, 2R)-1-(7-chloro-1,1-dioxido-3,4-dihydro-2H-pyrido[4,3-b][1,4,5]oxathiazepin-2-yl)-2-(6-fluoro-2,3-dimethylphenyl)propyl)-1,3,4-oxadiazol-2 (3H)-one] | > 50000 | 1000 to 10000
12 | COC(=O)c1cc(Cl)cc2c1S(=O)(=O)N([C@H](c1n[nH]c(=O)o1)[C@H](C)c1c(F)ccc(C)c1C)CCO2 [Example 18, methyl 7-chloro-2-((1S,2R)-2-(6-fluoro-2,3-dimethylphenyl)-1-(5-oxo-4,5-dihydro-1,3,4-oxadiazol-2-yl)propyl)-3,4-dihydro-2H-benzo[b][1,4,5]oxathiazepine-9-carboxylate 1,1-dioxide] | 10000 to 50000 | 100 to 1000

Continued, values first:

Row | IC50 [1] [nM] | IC50 (RNR (RNR1:RNR2 1:1)) [nM] | SMILES
13 | ≤ 1000 | < 20 | Cc1ccc(F)c([C@@H](C)[C@@H](c2n[nH]c(=O)o2)N2CN(C3CCCOC3)c3cc(Cl)ccc3S2(=O)=O)c1C (stereo in doubt) [Example 43, 5-((1S,2R)-1-(6-chloro-1,1-dioxido-4-((S)-tetrahydro-2H-pyran-3-yl)-3,4-dihydro-2H-benzo[e][1,2,4]thiadiazin-2-yl)-2-(6-fluoro-2,3-dimethylphenyl)propyl)-1,3,4-oxadiazol-2 (3H)-one]
14 | ≤ 1000 | 20 to 100 | Cc1ccc(F)c([C@@H](C)[C@@H](c2n[nH]c(=O)o2)N2COc3cc(Cl)ccc3S2(=O)=O)c1C [Example 7, 5-((1S,2R)-1-(6-chloro-1,1-dioxidobenzo[e][1,4,3]oxathiazin-2 (3H)-yl)-2-(6-fluoro-2,3-dimethylphenyl)propyl)-1,3,4-oxadiazol-2 (3H)-one]
15 | 5000 to 10000 | 20 to 100 | Cc1cc2c(cc1Cl)N(C)CN([C@H](c1n[nH]c(=O)o1)[C@H](C)c1c(F)ccc(C)c1C)S2(=O)=O [Example 12, 5-((1S,2R)-1-(6-chloro-4,7-dimethyl-1,1-dioxido-3,4-dihydro-2H-benzo[e][1,2,4]thiadiazin-2-yl)-2-(6-fluoro-2,3-dimethylphenyl)propyl)-1,3,4-oxadiazol-2 (3H)-one]
16 | 1000 to 5000 | 20 to 100 | Cc1ccc(F)c([C@@H](C)[C@@H](c2n[nH]c(=O)o2)N2CC(=O)N(C)c3cc(Cl)ccc3S2(=O)=O)c1C [Example 14, 5-((1S,2R)-1-(7-chloro-5-methyl-1,1-dioxido-4-oxo-4,5-dihydrobenzo[f][1,2,5]thiadiazepin-2 (3H)-yl)-2-(6-fluoro-2,3-dimethylphenyl)propyl)-1,3,4-oxadiazol-2 (3H)-one]
17 | 1000 to 5000 | 20 to 100 | Cc1ccc(F)c([C@@H](C)[C@@H](c2n[nH]c(=O)o2)N2CCOc3cc(Cl)cnc3S2(=O)=O)c1C [Example 16, 5-((1S,2R)-1-(7-chloro-1,1-dioxido-3,4-dihydro-2H-pyrido[3,2-b][1,4,5]oxathiazepin-2-yl)-2-(6-fluoro-2,3-dimethylphenyl)propyl)-1,3,4-oxadiazol-2 (3H)-one]
